{"source": "patent US5889147A", "about": "(University of Utah Research Foundation, priority 1997, dated 1999)", "key": {"mice [1]": {"system": "mice", "settings": "mouse, in vivo"}, "serotonin 5HT3 receptor": {"target": "T1, serotonin 5HT3 receptor (Homo sapiens, UniProt P46098)", "T1 sequence (P46098 24-478)": "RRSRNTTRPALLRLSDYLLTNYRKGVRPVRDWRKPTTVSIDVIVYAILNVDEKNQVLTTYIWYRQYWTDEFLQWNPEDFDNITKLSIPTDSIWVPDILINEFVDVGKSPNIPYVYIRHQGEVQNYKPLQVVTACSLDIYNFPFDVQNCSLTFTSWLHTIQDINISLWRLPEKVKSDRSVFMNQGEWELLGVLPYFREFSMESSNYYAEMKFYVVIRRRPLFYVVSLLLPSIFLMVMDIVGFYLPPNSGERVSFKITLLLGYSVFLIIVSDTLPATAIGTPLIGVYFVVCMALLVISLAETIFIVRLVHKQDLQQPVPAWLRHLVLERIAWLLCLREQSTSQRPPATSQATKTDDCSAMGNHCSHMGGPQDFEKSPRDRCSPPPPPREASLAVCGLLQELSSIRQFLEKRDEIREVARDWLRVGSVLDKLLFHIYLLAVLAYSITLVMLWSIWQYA"}, "[2]": {"system": "Frings audiogenic seizure susceptible mice", "settings": "mouse, in vivo"}, "CF No. 1 mice": {"system": "CF No. 1 mice", "settings": "mouse, in vivo, sc"}, "mice [3]": {"system": "mice", "settings": "mouse"}}, "note": "Entries after “also recorded” stand apart in the source; their conditions may differ. Positions of bridges follow the written chain, without caps; N, C: chain ends. Non-standard residues stand in square brackets, D forms with d. Residues, ends and D or L forms follow the SMILES beside them. Trp(6-Br) = N[C@@H](Cc1c[nH]c2cc(Br)ccc12)C(=O)O; Hyp = O=C(O)[C@@H]1C[C@@H](O)CN1", "data": [{"molecule": "NCC(=O)N[C@H]1CSSC[C@@H](C(N)=O)NC(=O)[C@H](Cc2c[nH]c3cc(Br)ccc23)NC(=O)[C@@H]2CCCN2C(=O)[C@H](CCC(=O)O)NC(=O)[C@@H](Cc2c[nH]c3ccccc23)NC(=O)[C@@H]2C[C@@H](O)CN2C1=O", "note": "[bromocontryphan, GCX1 X2 EPX5 C--NH2, X1 is Hyp, X2 is D-Trp and X5 is 6-bromo-L-Trp] (H-GC[Hyp][dW]EP[Trp(6-Br)]C-NH2; disulfide 2-8)", "values": [{"measurement": "biological activity in mammalian systems, compared with contryphan R and des[Gly1]contryphan R", "setting": "mice [1]", "result": "very similar to the spectrum of activity previously observed for both contryphan R and des[Gly^1 ]contryphan R"}]}, {"molecule": "Gly-Cys-Thr-Arg-Thr-Cys-Gly-Gly-Xaa1 -Lys-Cys-Thr-Gly-Thr-Cys-Thr-Cys-Thr-Asn-Ser-Ser-Lys-Cys-Gly-Cys-Arg-Tyr-Asn-Val-His-Pro-Ser-Gly-Xaa2 -Gly-Cys-Gly-Cys-Ala-Cys-Ser, where Xaa1 is Hyp and Xaa2 is 6-bromo-L-tryptophan [sigma conotoxin]", "values": [{"measurement": "receptor targeted", "setting": "serotonin 5HT3 receptor", "result": "targets the serotonin 5HT3 receptor"}]}, {"molecule": "Xaa1 -Ala-Thr-Ile-Asp-Xaa2 -Cys-Xaa2-Xaa2 -Thr-Cys-Asn-Val-Thr-Phe-Lys-Thr-Cys-Cys-Gly-Xaa3-Xaa3-Gly-Asp-Trp-Gln-Cys-Val-Xaa2-Ala-Cys-Pro-Val-OH, where Xaa3 =hydroxyproline, Xaa2 =Gla and Xaa1 =bromotryptophan [Bromosleeper Peptide]", "values": [{"measurement": "anticonvulsant activity", "setting": "[2]", "result": "seen to have activity in this model"}, {"measurement": "anticonvulsant activity", "setting": "CF No. 1 mice", "result": "found to have anticonvulsant activity"}, {"measurement": "in vivo effect in very young (<2 weeks old) and older (>3 weeks old) mice", "setting": "mice [3]", "result": "induced sleep in mice of both age groups"}, {"measurement": "Observed Effects in Mice: lethargic/drowsy after (onset time)", "setting": "mice [3]; in vivo", "result": "≈ 15 min; also recorded: ≈ 19 min; also recorded: ≈ 11 min"}, {"measurement": "dependence of potency on the age of the mice", "setting": "mice [3]; in vivo", "result": "more potent in 9-day-old mice than in the older mice"}]}]}
